According to patent US20230072225A1, “CONTROLLED RELEASE COMPOSITION AND METHOD” (DUPONT NUTRITION USA, INC., priority 2014, published 2023):

Experiment: Minimum film formation temperature (MFFT) of AquaCoat ECD-30 suspensions, MFFT-bar model 90
Type: physicochemical
Details: added at 9% by weight based on ethylcellulose solids
Experimental: The MFFT of such suspensions was tested with MFFT-bar model 90. The MFFT bar was preset and the desired temperature range was selected depending on predicted MFFT value. Ranges 3 (5° C. to 18° C.), 4 (15° C.-33° C.) or range 5 (23° C. to 50° C.) were used in this study. The formulation was applied using a 400 micron cube applicator from warm side to cold side, and the MFFT value was read after the film was formed.
Such compounds were added at a rate of 9% by weight (based on weight of ethylcellulose solids). The compounds evaluated were PGDL (propylene glycol dilaurate; HLB 2)), GMC (glyceryl monocaprylate, HLB 8.3), GML (glyceryl monooleate, HLB 2.8) and TGDS (triglycerol diisosterarate HLB 10-13). […] Sticky residue was found in the formulation even after mixing for extended time. The film on the MFFT bar was not smooth or transparent.

triglycerol diisosterarate [TGDS]
Compatibility with the formulation: didn't have good compatibility with the formulation

CCCCCCCCCCCC(=O)OCC(C)OC(=O)CCCCCCCCCCC (stereo not drawn) [PGDL, propylene glycol dilaurate]
Effect on MFFT of the formulation: didn't effectively decrease the MFFT

CCCCCCCC(=O)OCC(O)CO (stereo not drawn) [GMC, glyceryl monocaprylate]
Compatibility with the formulation: didn't have good compatibility with the formulation
